We go through 15 molecules from US12331026B2 (NiKang Therapeutics, Inc., priority 2022, dated 2025).

Molecules are shown by their SMILES.

The target in the assay is T1, CDK2 (Homo sapiens, UniProt P24941).
T1 construct: endogenous in cells; host or cells: OVCAR3 cells
The experiment in a line: Phospho-RB measurement in OVCAR3 cells (HTRF phospho-RB S807/811). Format: cell-based. The note with it: phosphorylation of RB protein at S807/811, HTRF, 24 h compound treatment, 0.3 to 10,000 nM, read-out: pRb (uM). As to the method:
The ability of compounds of Formula (I) to inhibit CDK2 was determined in OVCAR3 cells. Phosphorylation of RB protein at S807/811 were measured using HTRF phospho-RB cellular kits (Cat #64RBS807PEG) from Cisbio.
On Day 1, OVCAR3 cells were seeded into 96-well tissue-culture treated plates at 20,000 cells/well in 200 μL and incubated overnight at 37° C. in CO2 atmosphere. On Day 2, the cells were treated with test compounds at concentrations from 0.3 to 10,000 nM using HP D300 digital dispenser. Twenty-four hours after compound treatment, cell culture media was removed by flicking the plate and tapping the plate against clean paper towel. Immediately 30 μL 1× lysis buffer was supplemented from the kit and the plate was incubated at room temperature on shaker for 30 min. After homogenization by pipetting up and down, 8 μL cell lysate from 96-well cell culture plate was transferred to 384-well small volume white detection plate. 2 μL premixed detection solution was added and the plate was covered with sealer. To prepare the detection solution, d2 conjugated-phospho-RB antibody and Eu-cryptate conjugated phosphor-RB antibody were diluted into detection buffer following manufacturer's instruction.
Detection plates were incubated for 4 h at room temperature and read on ClarioStar (BMG Labtech) in TR-FRET mode ([…]). The TR-FRET ratio (665 nM1/620 nM) was plotted against the compound concentration and normalized to DMSO controls. Half maximal inhibition concentration (IC50) values are calculated with a four-parameter logistic fit using GraphPad Prism (version 8; La Jolla, CA).
(In general: TR-FRET usually uses a lanthanide donor and a delayed reading to cut background.)
With `O=S1(=O)CC2(CC(Nc3nccc(-c4sc(C56CC(C5)C6)nc4-c4cccc(NS(=O)(=O)c5c(F)cccc5OC(F)F)c4F)n3)C2)C1` [Example 58, N-(3-(2-(bicyclo[1.1.1]pentan-1-yl)-5-(2-((2,2-dioxido-2-thiaspiro[3.3]heptan-6-yl)amino)pyrimidin-4-yl)thiazol-4-yl)-2-fluorophenyl)-2-(difluoromethoxy)-6-fluorobenzenesulfonamide], the IC50 was found to be 0.09 µM.

Take `CN1CC2CCC1CN2c1nc(-c2cccc(NS(=O)(=O)c3c(F)cccc3F)c2F)c(-c2ccnc(NC3CC4(C3)CS(=O)(=O)C4)n2)s1` (stereo not drawn) [Example 28, N-(3-(5-(2-((2,2-dioxido-2-thiaspiro[3.3]heptan-6-yl)amino)pyrimidin-4-yl)-2-(5-methyl-2,5-diazabicyclo[2.2.2]octan-2-yl)thiazol-4-yl)-2-fluorophenyl)-2,6-difluorobenzenesulfonamide]: the IC50 was determined as 1.17 µM. Then `CN1CC2CCC(C1)N2c1nc(-c2cccc(NS(=O)(=O)c3c(F)cccc3C(F)(F)F)c2F)c(-c2ccnc(NC3CC4(C3)CS(=O)(=O)C4)n2)s1` [Example 51, N-(3-(5-(2-((2,2-dioxido-2-thiaspiro[3.3]heptan-6-yl)amino)-pyrimidin-4-yl)-2-(3-methyl-3,8-diazabicyclo[3.2.1]octan-8-yl)thiazol-4-yl)-2-fluorophenyl)-2-fluoro-6-(trifluoromethyl)-benzenesulfonamide], with 0.04 µM; and `O=C1CC2CCC(C1)N2c1nc(-c2cccc(NS(=O)(=O)c3c(F)cccc3F)c2F)c(-c2ccnc(NC3CC4(C3)CS(=O)(=O)C4)n2)s1` [Example 17, N-(3-(5-(2-((2,2-dioxido-2-thiaspiro[3.3]heptan-6-yl)amino)pyrimidin-4-yl)-2-(3-oxo-8-azabicyclo[3.2.1]octan-8-yl)thiazol-4-yl)-2-fluorophenyl)-2,6-difluorobenzenesulfonamide], with 0.48 µM. On to `O=S1(=O)C[C@@H]2[C@H](C1)[C@H]2Nc1nccc(-c2sc(C3(C(F)F)CC3)nc2-c2cccc(NS(=O)(=O)c3c(F)cccc3F)c2F)n1` [Example 98, N-(3-(2-(1-(difluoromethyl)cyclopropyl)-5-(2-(((1R,5S,6r)-3,3-dioxido-3-thiabicyclo[3.1.0]hexan-6-yl)amino)pyrimidin-4-yl)thiazol-4-yl)-2-fluorophenyl)-2,6-difluorobenzenesulfonamide], for which the IC50 came to 0.13 µM. For `COc1cccc(F)c1S(=O)(=O)Nc1cccc(-c2nc(C34CC(C3)C4)sc2-c2ccnc(NC3CC4(C3)CS(=O)(=O)C4)n2)c1F` [Example 55, N-(3-(2-(bicyclo[1.1.1]pentan-1-yl)-5-(2-((2,2-dioxido-2-thiaspiro[3.3]heptan-6-yl)amino)pyrimidin-4-yl)thiazol-4-yl)-2-fluorophenyl)-2-fluoro-6-methoxybenzenesulfonamide], the IC50 was 1.35 µM. As to `O=S1(=O)CC2(CC(Nc3nccc(-c4sc(N5CC6CCC(C5)N6c5ccccn5)nc4-c4cccc(NS(=O)(=O)c5c(F)cccc5F)c4F)n3)C2)C1` [Example 37, N-(3-(5-(2-((2,2-dioxido-2-thiaspiro[3.3]heptan-6-yl)amino)-pyrimidin-4-yl)-2-(8-(pyridin-2-yl)-3,8-diazabicyclo[3.2.1]octan-3-yl)thiazol-4-yl)-2-fluorophenyl)-2,6-difluorobenzenesulfonamide], the IC50 was 0.42 µM.

In the case of `O=S1(=O)C[C@@H]2[C@H](C1)[C@@H]2Nc1nccc(-c2sc(N3C4CCC3CN(C3CC(F)(F)C3)C4)nc2-c2cccc(NS(=O)(=O)c3c(F)cccc3F)c2F)n1` [Example 94, N-(3-(2-(3-(3,3-difluorocyclobutyl)-3,8-diazabicyclo[3.2.1]octan-8-yl)-5-(2-(((1R,5S,6s)-3,3-dioxido-3-thiabicyclo[3.1.0]hexan-6-yl)amino)pyrimidin-4-yl)thiazol-4-yl)-2-fluorophenyl)-2,6-difluorobenzenesulfonamide], the IC50 came out at 0.28 µM.

With `O=S1(=O)CC2(CC(Nc3nccc(-c4sc(N5C6CCC5CN(C5CC(F)(F)C5)C6)nc4-c4cccc(NS(=O)(=O)c5c(F)cccc5C(F)(F)F)c4F)n3)C2)C1` [Example 149, N-(3-(2-(3-(3,3-difluorocyclobutyl)-3,8-diazabicyclo[3.2.1]octan-8-yl)-5-(2-((2,2-dioxido-2-thiaspiro[3.3]heptan-6-yl)amino)pyrimidin-4-yl)thiazol-4-yl)-2-fluorophenyl)-2-fluoro-6-(trifluoromethyl)benzenesulfonamide], the IC50 worked out at 0.09 µM. Regarding `O=S1(=O)C[C@@H]2[C@H](C1)[C@H]2Nc1nccc(-c2sc(N3C4CCC3CN(C3CCC3)C4)nc2-c2cccc(NS(=O)(=O)c3c(F)cccc3C(F)(F)F)c2F)n1` [Example 131, N-(3-(2-(3-cyclobutyl-3,8-diazabicyclo[3.2.1]octan-8-yl)-5-(2-(((1R,5S,6r)-3,3-dioxido-3-thiabicyclo[3.1.0]hexan-6-yl)amino)-pyrimidin-4-yl)thiazol-4-yl)-2-fluorophenyl)-2-fluoro-6-(trifluoromethyl)benzenesulfonamide], the IC50 worked out at 0.12 µM. For the molecule `C[C@@H]1COC[C@@H](C)N1c1nc(-c2cccc(NS(=O)(=O)c3c(F)cccc3F)c2F)c(-c2ccnc(NC3CC4(C3)CS(=O)(=O)C4)n2)s1` [Example 56, N-(3-(2-((3R,5R)-3,5-dimethylmorpholino)-5-(2-((2,2-dioxido-2-thiaspiro[3.3]heptan-6-yl)amino)pyrimidin-4-yl)thiazol-4-yl)-2-fluorophenyl)-2,6-difluorobenzenesulfonamide], the IC50 turned out to be 0.11 µM.

Take `O=S1(=O)C[C@@H]2[C@H](C1)[C@@H]2Nc1nccc(-c2sc(C34CC5CC(CC(C5)C3)C4)nc2-c2cccc(NS(=O)(=O)c3c(F)cccc3F)c2F)n1` [Example 76, N-(3-(2-((3R,5R,7R)-adamantan-1-yl)-5-(2-(((1R,5S,6s)-3,3-dioxido-3-thiabicyclo[3.1.0]hexan-6-yl)amino)pyrimidin-4-yl)thiazol-4-yl)-2-fluorophenyl)-2,6-difluorobenzenesulfonamide]: the IC50 amounted to 0.87 µM. On to `CC1(C#N)CC2CCC(C1)N2c1nc(-c2cccc(NS(=O)(=O)c3c(F)cccc3F)c2F)c(-c2ccnc(NC3CC4(C3)CS(=O)(=O)C4)n2)s1` (stereo not drawn) [Example 33, N-(3-(2-(3-cyano-3-methyl-8-azabicyclo[3.2.1]octan-8-yl)-5-(2-((2,2-dioxido-2-thiaspiro[3.3]heptan-6-yl)amino)pyrimidin-4-yl)thiazol-4-yl)-2-fluorophenyl)-2,6-difluorobenzenesulfonamide], for which the IC50 is 0.1 µM. Then `O=S1(=O)C[C@@H]2[C@H](C1)[C@@H]2Nc1nccc(-c2sc(C34CCC(CC3)CC4)nc2-c2cccc(NS(=O)(=O)c3c(F)cccc3F)c2F)n1` [Example 119, N-(3-(2-(bicyclo[2.2.2]octan-1-yl)-5-(2-(((1R,5S,6s)-3,3-dioxido-3-thiabicyclo[3.1.0]hexan-6-yl)amino)pyrimidin-4-yl)thiazol-4-yl)-2-fluorophenyl)-2,6-difluorobenzenesulfonamide], with 1.34 µM; and `O=S1(=O)CC2(CC(Nc3nccc(-c4sc(N5C6CCC5CN(C5CCC(F)(F)CC5)C6)nc4-c4cccc(NS(=O)(=O)c5c(F)cccc5F)c4F)n3)C2)C1` [Example 147, N-(3-(2-(3-(4,4-difluorocyclohexyl)-3,8-diazabicyclo[3.2.1]octan-8-yl)-5-(2-((2,2-dioxido-2-thiaspiro[3.3]heptan-6-yl)amino)pyrimidin-4-yl)thiazol-4-yl)-2-fluorophenyl)-2,6-difluorobenzenesulfonamide], with 0.91 µM.
